pIC50: −log10 of the molar value.
Tests used:
KELLY cells [1] = assay: Cyclophosphamide IC50 in siRNA-transfected cells, Cell Titer Glo 2.0 viability (Example 7); format: cell-based
Description: (§1) GPC2 mRNA expression was reduced with the indicated siRNAs and changes in cell viability were assessed in multiple neuroblastoma cell lines. Cells were transfected with either a control siRNA or with GPC2 siRNA sequences 3, 5 or 7 from Table 7 using the RNAiMAX Lipofectamine kit (Invitrogen, Carlsbad, Calif.) as previously described in 96 wells for viability assays. Cyclophosphamide was added at increasing concentrations (0-20 uM) to transfected cells at 24 hr post transfection. Following a 72 hour incubation period, viability measurements were made using Cell Titer Glo 2.0.

SKNAS cells [2] = assay: as above; format: cell-based
Description: as §1

CHLA-136 cells [3] = assay: as above; format: cell-based
Description: as §1

CHLA-172 cells [4] = assay: as above; format: cell-based
Description: as §1

TOV112D cells = assay: Cisplatin IC50 in siRNA-transfected cells, Cell Titer Glo 2.0 viability (Example 5); format: cell-based
Description: (§2) GPC2 mRNA was reduced using the indicated siRNAs and changes in cell viability were assessed in multiple cancer cell lines, in combination with Cisplatin treatment. Cells were transfected with either a scrambled control siRNA or with GPC2 siRNA sequences 3 or 5 from Table 7 using the RNAiMAX Lipofectamine kit (Invitrogen, Carlsbad, Calif.), as previously described, in either in 96 well (for viability assays) or 6 well format (for total RNA). Cisplatin was added at increasing concentrations (0 to 30 uM) to transfected cells at 24 hours post transfection. Following a 72 hour incubation period, cell viability was measured using Cell Titer Glo 2.0. Total RNA samples were also isolated to measure knockdown efficiency.

SH-SY5Y cells = assay: as above; format: cell-based; settings: SH-SY5Y cells transfected with the labelled siRNA; cisplatin added 24 hours post transfection, 72 hour incubation
Description: as §2

KELLY cells [5] = assay: as above; format: cell-based; settings: KELLY cells transfected with the labelled siRNA; cisplatin added 24 hours post transfection, 72 hour incubation
Description: as §2

SKNAS cells [6] = assay: as above; format: cell-based
Description: as §2

SK-N-BE2 cells = assay: as above; format: cell-based; settings: SK-N-BE2 cells transfected with the labelled siRNA; cisplatin added 24 hours post transfection, 72 hour incubation
Description: as §2

COV362 cells = assay: as above; format: cell-based
Description: as §2

CHLA-136 cells [7] = assay: as above; format: cell-based
Description: as §2

CHLA-90 cells = assay: as above; format: cell-based
Description: as §2

RH41 cells = assay: as above; format: cell-based; settings: RH41 cells transfected with the labelled siRNA; cisplatin added 24 hours post transfection, 72 hour incubation
Description: as §2

CHLA-172 cells [8] = assay: as above; format: cell-based
Description: as §2

SKNAS cells [9] = assay: Carboplatin IC50 in siRNA-transfected cells, Cell Titer Glo 2.0 viability (Example 6); format: cell-based
Description: as §1, with “reduced using” for “reduced with”, “assays. Carboplatin” for “assays. Cyclophosphamide”, “concentrations (0 to 150” for “concentrations (0-20”, “24 hours” for “24 hr”

GPC2 mRNA = GPC2 mRNA knockdown by qPCR in TC-32 Ewing's sarcoma cells transfected with siRNA (Example 2); format: cell-based, human; settings: TC-32 cells; 72 hours post transfection
Description: siRNAs 1-5 from Table 7 were diluted to 40 nM in OptiMEM media and mixed in a 1:3 ratio (weight by volume) with RNAiMAX. This was incubated for 15 minutes at room temperature and dispensed onto cells plated in a 6 well tissue culture plate. Total RNA samples were collected at either 72 hours post transfection to compare knockdown efficiency (FIG. 2A), or at 24, 48, 72 or 96 hours post transfection to determine the extent of GPC2 mRNA knockdown over time (FIG. 2B). Expression levels of mRNA of GPC2 were measured in these samples using primers specific for GPC2 obtained commercially from Thermofisher (Carlsbad, Calif.) and standard qPCR technique.

“GPC2 siRNA 3: siRNA duplex: sense CCUGCUUGGACCUCGAUAA[dT][dT] (SEQ ID NO: 207), anti-sense UUAUCGAGGUCCAAGCAGG[dT][dT] (SEQ ID NO: 208) (sense CCUGCUUGGACCUCGAUAANN; antisense UUAUCGAGGUCCAAGCAGGNN; 3' dTdT overhangs, chemistry not fully specified; listed as Homo sapiens)” was tested, and the “Data Summary: effect of knockdown on sensitivity to cyclophosphamide” value (“Data Summary: effect … to cyclophosphamide” for short) (KELLY cells [1]; KELLY) was “increases sensitivity to”, the pIC50 (KELLY cells [1]; KELLY cells transfected with the labelled siRNA, cyclophosphamide added 24 hr post transfection, 72 hour incubation) was 5.10 and the “Data Summary: effect … to cyclophosphamide” value (SKNAS cells [2]; SKNAS) was “increases sensitivity to”. For the same substance, the pIC50 (SKNAS cells [2]; SKNAS cells transfected with the labelled siRNA, cyclophosphamide added 24 hr post transfection, 72 hour incubation) was 5.86, the “Data Summary: effect … to cyclophosphamide” value (CHLA-136 cells [3]; CHLA-136) was “not increase sensitivity” and the pIC50 (CHLA-136 cells [3]; CHLA-136 cells transfected with the labelled siRNA, cyclophosphamide added 24 hr post transfection, 72 hour incubation) was 4.96. The “Data Summary: effect … to cyclophosphamide” value (CHLA-172 cells [4]; CHLA-172) was “increases sensitivity to”, the pIC50 (CHLA-172 cells [4]; CHLA-172 cells transfected with the labelled siRNA, cyclophosphamide added 24 hr post transfection, 72 hour incubation) was 5.00 and the “Data Summary: effect of knockdown on sensitivity to cisplatin” value (“Data Summary: effect … to cisplatin” below) (TOV112D cells; TOV112D) was “does not increase”. The pIC50 (TOV112D cells; TOV112D cells transfected with the labelled siRNA, cisplatin added 24 hours post transfection, 72 hour incubation) was 5.30, the pIC50 (SH-SY5Y cells) was 4.75 and the pIC50 (KELLY cells [5]) was 4.66. For the same substance, the “Data Summary: effect … to cisplatin” value (SKNAS cells [6]; SKNAS) was “increases sensitivity to”, the pIC50 (SKNAS cells [6]; SKNAS cells transfected with the labelled siRNA, cisplatin added 24 hours post transfection, 72 hour incubation) was 4.70 and the pIC50 (SK-N-BE2 cells) was 5.10. The “Data Summary: effect … to cisplatin” value (COV362 cells; COV362) was “does not increase”, the pIC50 (COV362 cells; COV362 cells transfected with the labelled siRNA, cisplatin added 24 hours post transfection, 72 hour incubation) was 5.19 and the “Data Summary: effect … to cisplatin” value (CHLA-136 cells [7]; CHLA-136) was “increases sensitivity to”. For the same substance, the pIC50 (CHLA-136 cells [7]; CHLA-136 cells transfected with the labelled siRNA, cisplatin added 24 hours post transfection, 72 hour incubation) was 4.96, the “Data Summary: effect … to cisplatin” value (CHLA-90 cells; CHLA-90) was “increases sensitivity to” and the pIC50 (CHLA-90 cells; CHLA-90 cells transfected with the labelled siRNA, cisplatin added 24 hours post transfection, 72 hour incubation) was 4.82. The pIC50 (RH41 cells) was 5.49, the “Data Summary: effect … to cisplatin” value (CHLA-172 cells [8]; CHLA-172) was “does not increase” and the pIC50 (CHLA-172 cells [8]; CHLA-172 cells transfected with the labelled siRNA, cisplatin added 24 hours post transfection, 72 hour incubation) was 4.80. For the same substance, the “Data Summary: effect of knockdown on sensitivity to carboplatin” value (SKNAS cells [9]; SKNAS) was “increases sensitivity to”, the pIC50 (SKNAS cells [9]; SKNAS cells transfected with the labelled siRNA, carboplatin added 24 hours post transfection, 72 hour incubation) was 4.40 and the “Degree of GPC2 knockdown among siRNA sequences 1-5” value (GPC2 mRNA) was “greatest degree of GPC2 knockdown”.

From patent US20210171948A1, “COMPOSITIONS AND METHODS FOR TARGETING GLYPICAN-2 IN THE TREATMENT OF CANCER” (Shepherd Therapeutics, Inc., priority 2019, published 2021)
